The nature of data set [1]: in vitro. The following applies: human. A digest of the protocol: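 Peptides at 2-200 μmol.l^−1 incubated 1 h at 37 °C with 5% v/v human erythrocyte suspension in physiological solution. Released haemoglobin in supernatant read at 540 nm against buffer (0%) and 0.2% Triton X100 (100%) lysis controls. LC50 is the peptide concentration lysing 50% of cells.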
Data set [2] concerns S. aureus (Liberec) biofilm. Briefly: Bacterial biofilm, remaining metabolic activity (MTT). It counts as cell-based, Staphylococcus aureus. To be noted: remaining metabolic activity of biofilm, 20 h. A digest of the protocol:
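Biofilms of S. aureus or P. aeruginosa (Liberec) were grown 24 h at 37° C with shaking in BHI plus 1% glucose from ca. 10^8 CFU/ml inocula. After washing, biofilms were exposed 20 h to peptides at 1–128 μmol.l^−1. Surviving metabolic activity was measured by MTT (40 min, formazan in DMSO, A540) as percent of untreated biofilm, blank-corrected.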

The test system of data set [3] is P. aeruginosa (Liberec) biofilm. The description is as above. It counts as cell-based, Pseudomonas aeruginosa. The following applies: remaining metabolic activity of biofilm, 20 h. The procedure:
Inoculum of S. aureus (Liberec) or P. aeruginosa (Liberec) cultivated overnight in BHI medium was diluted with fresh BHI medium containing 1% glucose to a final concentration to be ca. 10^8 CFU/ml. Then this was pipetted (100 μl) to 96-multiwell polystyrene plate which was incubated at 37° C. under rotary shaking (300 RPM) for 24 h. Medium without bacteria in the wells was used as a negative control. Supernatant from each well was drained and the biofilm formed on the bottom and on the walls of the wells was cautiously washed three times by sterile physiological solution (300 μl). The peptides tested in the concentrations of 1-128 μmol.l^−1 were prepared by twofold serial dilution of their stock solution (1 mmol.l^−1) in fresh BHI medium and then pipetted (100 μl) to the wells with formed biofilms. The biofilms covered by BHI medium without peptide were used as a positive control. The plates were then incubated for 20 h as described above. After that the liquid was drained out and wells were washed twice with sterile physiological solution.
The metabolic activity of surviving bacterial cells in the biofilm was determined by staining with MTT (3-(4,5-dimethylthiazol-2-yl)-2,5-diphenyl-2H-tetrazolium bromide) as follows: The mixture of BHI medium (100 μl) and 10 μl of the stock solution of MTT (5 mg/ml in physiological solution) was added to each well and the plate was incubated 40 min at 37° C. The liquid was drained out and the insoluble formazan crystals formed by reduction inside the biofilm were dissolved with dimethyl sulphoxide (100 μl). The intensity of staining in each well was measured as absorbance at 540 nm on a Tecan Infinite M200 Pro reader (Tecan GmbH, Austria). Remaining activity of surviving cells inside the biofilm was expressed for each well in percentage according to the following equation:
[formula] where A is the absorbance of the tested compound, ABL is the absorbance of the negative control, and AC is the absorbance of control biofilm.

The test system of data set [4] is Candida albicans (Olomouc) biofilm. Briefly: C. albicans biofilm, remaining metabolic activity (XTT). It is filed as cell-based. An outline of the steps: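 Candida albicans (Olomouc) biofilms grown 48 h at 37 °C in MOPS-buffered RPMI 1640 from 1×10^6 CFU inocula, then exposed 20 h to peptide at 0.39-200 μmol.l^−1. XTT/PMS staining for 90 min, A540; remaining metabolic activity expressed as percent of untreated biofilm after blank correction.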

Data set [5] has as its system C. glabrata ATCC 2001. As to the kind of experiment: Lethal effect on yeast cells by plating test. It counts as cell-based, Candida glabrata. The following applies: 15 minutes exposure, peptide alone, FIG. 1B. How it is done:
C. glabrata ATCC 2001 cells were aerobically cultivated at 30° C. on YPD medium (Formedium) overnight. A small volume of inoculum was added to fresh YPD medium to final concentration of cells 5×10^6 CFU/ml (corresponding value OD600=0.2). Yeast cells were cultivated at 30° C. (190 rpm) until they reach early exponential growth phase, usually further 4-5 h. Cells were harvested, washed twice with distilled water (1.5 min, 3000 g) and resuspended in MES-TEA buffer (10 mM 4-morpholineethanesulphonic acid, pH 6.0 adjusted with triethanolamine, both chemicals from Sigma-Aldrich) to OD600=0.2.
Cells from the early exponential growth phase were washed twice with sterile distilled water (1.5 min, 3000 g) and resuspended in MES-TEA buffer to OD600=0.2. The cell suspension was divided into 1 ml aliquots in Eppendorf tubes. One sample served as a control, the tested compounds (peptides, ODDC) were added in selected concentrations to the rest of samples. Cells were incubated with drugs with occasional gentle stirring for 15 minutes, then 10 μl of cells were diluted 100-fold in distilled water and 15 μl aliquots were spread on 2% YPD agar (Formedium) plates (diameter of Petri plate 9 cm). The samples were always plated in triplicates. The number of colonies was determined after 24-h incubation of the plates at 30° C. […]

[6] abbreviates: peptide concentration 8 μmol · l^−1.
The mark [7] stands for this setting: peptide concentration 16 μmol · l^−1.
[8] abbreviates: peptide concentration 32 μmol · l^−1.
The mark [9] stands for this setting: peptide concentration 64 μmol · l^−1.
[10] abbreviates: peptide concentration 128 μmol · l^−1.

The text below walks through data of patent US10160785B2, “Antimicrobial peptides and their use for the treatment of topical infections” (priority 2015, dated 2018).

Where a SMILES comes first, the peptide text is derived from it.

For `CC[C@@H](C)[C@@H](NC(=O)CN)C(=O)N[C@H](CCSC)C(=O)N[C@H](CO)C(=O)N[C@H](CO)C(=O)N[C@H](CC(C)C)C(=O)N[C@H](CCSC)C(=O)N[C@H](CCCCN)C(=O)N[C@H](CCCCN)C(=O)N[C@H](CC(C)C)C(=O)N[C@H](CCCCN)C(=O)N[C@H](CCCCN)C(=O)N[C@@H](C(=O)N[C@@H](C(=O)N[C@H](C)C(=O)N[C@H](CCCCN)C(N)=O)[C@H](C)CC)[C@H](C)CC` [II] (HELM PEPTIDE1{G.[dI].[dM].[dS].[dS].[dL].[dM].[dK].[dK].[dL].[dK].[dK].[dI].[dI].[dA].[dK].[am]}$$$$V2.0), in data set [1], the CC50 at 1 h was greater than 400 µM. Also, the “Metabolic activity (%) S. aureus (Liberec)” value turned out to be 143.1% in data set [2] (setting [6]); 138.8% in data set [2] (setting [7]); 107.5% in data set [2] (setting [8]); 29.9% in data set [2] (setting [9]); 7.7% in data set [2] (setting [10]). Moreover, the “Metabolic activity (%) P. aeruginosa (Liberec)” value came out at 94.2% in data set [3] (setting [6]); 100.5% in data set [3] (setting [7]); 79.1% in data set [3] (setting [8]); 33.0% in data set [3] (setting [9]); 26.7% in data set [3] (setting [10]). The “Metabolic activity of C. albicans (%)” value in data set [4] (peptide concentration 6.25 μmol · l^−1, 20 hours) is 105.3%; in data set [4] (peptide concentration 12.5 μmol · l^−1, 20 hours), 114.2%; in data set [4] (peptide concentration 25 μmol · l^−1, 20 hours) it was 35.2%; in data set [4] (peptide concentration 50 μmol · l^−1, 20 hours), 1.0%; in data set [4] (peptide concentration 100 μmol · l^−1, 20 hours), 0.0%; in data set [4] (peptide concentration 200 μmol · l^−1, 20 hours) it was 0.0%. Moreover, in data set [5], the “antifungal (lethal) effect in plating test” value was “high antifungal effect”.
